Results on two molecules are retold here after patent publication US9834820B2, “Methods for the treatment and diagnosis of bone mineral density related diseases” (INSERM (Institut National de la Sante et de la Recherche …, priority 2007, dated 2017).

“Also recorded” adds a separate entry of the source.

For orientation: IC50 means the concentration that gives 50% inhibition.

Experiment [1] relates to RANKL expression in primary cultured osteoblasts. The experiment is described as follows: real-time quantitative PCR of RANKL mRNA in primary cultured osteoblasts. The format is cell-based, human. As to conditions: for RANKL mRNA levels (in words): osteoblasts, FIG. 2b. How it is done: (§1) Human normal cranial suture were obtained after signed informed consent during routine surgery for craniosynostosis. Osteoblasts were cultured in Dulbecco's modified Eagle medium (with 10% fetal bovine serum) as described elsewhere (De Pollack, C. et al. 1996). […] Cells were harvested at day 3. Real-time quantitative PCR using Light Cycler technology (Roche Manheim) was performed for OPG and RANKL mRNA in each sample. The experiments were performed five times. In each experiment, samples were run in triplicate. The amounts of OPG and RANKL mRNA were normalized to the amount of β-actin mRNA. Student test was used for p values determination.

The subject of experiment [2] is OPG expression in primary cultured osteoblasts. Description: real-time quantitative PCR of OPG mRNA in primary cultured osteoblasts. The format is cell-based, human. Particulars: for OPG expression compared to control values: p<0.005; for OPG mRNA levels (in words): osteoblasts, FIG. 2b. How it is done:
as §1

The next experiment has as its system TXAS. As to conditions: read-out: IC50 as selective inhibitor of TXAS; cited from earlier work.

For the molecule `O=C(O)/C=C/c1ccc(Cn2ccnc2)cc1` [Ozagrel], the “RANKL expression compared to control values” in experiment [1] (Ozagrel 0.25 μM added daily during 3 days, normalized to β-actin mRNA, p<0.005) is −78%. The “RANKL mRNA levels (in words)” value in experiment [1] is recorded as “diminution”. In experiment [2] (Ozagrel 0.25 μM added daily during 3 days, normalized to β-actin mRNA), the “OPG expression compared to control values” is “+50%”. Besides, the “OPG mRNA levels (in words)” value in experiment [2] is “augmentation”. In the experiment with TXAS, the IC50 is 11 nM.
`CCCCC[C@H](O)/C=C/[C@H]1CC2CC(C2)[C@@H]1C/C=C\CCCC(=O)O` [CTA2]: the “RANKL expression compared to control values” in experiment [1] (CTA2 5 μM added at day one, harvested day 3, p<0.005) is given as “+94%”; in experiment [1] (CTA2 15 μM added at day one, harvested day 3, p<0.03) it was “+471%”. Moreover, the “RANKL mRNA levels (in words)” value in experiment [1] is “augmentation; also recorded: increased”. Moreover, the “OPG expression compared to control values” in experiment [2] (CTA2 5 μM added at day one, harvested day 3) is −40%; in experiment [2] (CTA2 15 μM added at day one, harvested day 3), −53%. In addition, the “OPG mRNA levels (in words)” value in experiment [2] is “diminution; also recorded: decreased”.
